From patent US10479795B2 (Incyte Corporation, priority 2016, dated 2019)
Counter-ions that a name gives are not always drawn.

What was measured:
[1] = molecular target: PI3Kγ (p110γ) Recombinant Human Protein (Homo sapiens (Human), UniProt P48736); assay: PI3K-γ Scintillation Proximity Assay; format: biochemical; conditions: read-out: PI3Kγ IC50
Procedure, shortened: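 Recombinant human p110γ assayed at room temperature in 20 mM MOPS pH 6.7, 10 mM MgCl2, 5 mM DTT, 0.03% CHAPS, 2% DMSO, with 20 μM PIP2 and 2 μM ATP plus [γ-33P]ATP. Product captured on WGA SPA beads overnight and counted; IC50 fitted from % of solvent-control activity versus log inhibitor concentration.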

[2] = molecular target: PI3Kδ (p110δ/p85α) Recombinant Human Protein (Homo sapiens (Human), UniProt O00329); assay: PI3Kδ Scintillation Proximity Assay; format: biochemical
Procedure, shortened: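 Recombinant human p110δ/p85α (3.4 nM) phosphorylates 20 μM di-octanoyl PIP2 using 2 μM ATP spiked with [γ-33P]ATP, 120 min, room temperature, pH 6.7, 2% DMSO. Product measured by scintillation proximity; IC50 from dose-response fit.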

[3] = tested on: Phosphorylated Ribosomal Protein S6 (RPS6); assay: THP-1 RPS6 ELISA Assay; format: cell-based, Human; conditions: Homo sapiens; THP-1 cells; read-out: PI3Kγ_THP1_RPS6_ELISA IC50
Procedure, shortened: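 Serum-starved THP-1 cells were preincubated with a concentration range of compound for 2 h at 37 °C, then stimulated with 10 nM MCP-1 for 15 min. Phospho-RPS6 in lysates was quantified by ELISA at 450 nm. IC50 came from percent inhibition versus log inhibitor concentration.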

Chain of PI3Kδ (p110δ/p85α) Recombinant Human Protein (O00329 whole entry): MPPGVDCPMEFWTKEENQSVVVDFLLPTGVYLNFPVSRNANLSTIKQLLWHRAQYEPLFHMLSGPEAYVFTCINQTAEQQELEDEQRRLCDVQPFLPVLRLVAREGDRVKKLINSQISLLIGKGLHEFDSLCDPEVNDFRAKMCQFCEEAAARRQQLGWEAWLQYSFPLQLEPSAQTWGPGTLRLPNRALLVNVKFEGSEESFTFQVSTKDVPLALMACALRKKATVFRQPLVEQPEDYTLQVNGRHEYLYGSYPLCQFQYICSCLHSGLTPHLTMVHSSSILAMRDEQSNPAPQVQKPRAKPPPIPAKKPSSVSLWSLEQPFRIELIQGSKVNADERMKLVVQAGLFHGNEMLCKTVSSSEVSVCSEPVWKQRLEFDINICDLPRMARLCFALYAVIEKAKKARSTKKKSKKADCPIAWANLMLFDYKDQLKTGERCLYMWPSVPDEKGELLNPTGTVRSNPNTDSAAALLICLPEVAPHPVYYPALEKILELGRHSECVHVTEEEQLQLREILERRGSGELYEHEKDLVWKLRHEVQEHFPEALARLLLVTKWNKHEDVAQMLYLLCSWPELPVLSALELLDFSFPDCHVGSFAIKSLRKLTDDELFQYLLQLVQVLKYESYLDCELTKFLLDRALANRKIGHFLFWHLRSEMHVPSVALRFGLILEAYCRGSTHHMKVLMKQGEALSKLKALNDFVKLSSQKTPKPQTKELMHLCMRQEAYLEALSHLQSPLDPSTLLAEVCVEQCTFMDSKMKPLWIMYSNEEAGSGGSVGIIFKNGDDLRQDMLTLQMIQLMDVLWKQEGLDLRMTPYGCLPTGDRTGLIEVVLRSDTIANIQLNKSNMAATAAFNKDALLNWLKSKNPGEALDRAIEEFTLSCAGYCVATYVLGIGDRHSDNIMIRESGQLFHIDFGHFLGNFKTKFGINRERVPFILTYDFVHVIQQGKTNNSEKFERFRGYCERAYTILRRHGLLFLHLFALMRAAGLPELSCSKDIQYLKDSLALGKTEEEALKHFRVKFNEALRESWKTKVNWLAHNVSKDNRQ
Chain of PI3Kδ (p110δ/p85α) Recombinant Human Protein (P27986 whole entry partner): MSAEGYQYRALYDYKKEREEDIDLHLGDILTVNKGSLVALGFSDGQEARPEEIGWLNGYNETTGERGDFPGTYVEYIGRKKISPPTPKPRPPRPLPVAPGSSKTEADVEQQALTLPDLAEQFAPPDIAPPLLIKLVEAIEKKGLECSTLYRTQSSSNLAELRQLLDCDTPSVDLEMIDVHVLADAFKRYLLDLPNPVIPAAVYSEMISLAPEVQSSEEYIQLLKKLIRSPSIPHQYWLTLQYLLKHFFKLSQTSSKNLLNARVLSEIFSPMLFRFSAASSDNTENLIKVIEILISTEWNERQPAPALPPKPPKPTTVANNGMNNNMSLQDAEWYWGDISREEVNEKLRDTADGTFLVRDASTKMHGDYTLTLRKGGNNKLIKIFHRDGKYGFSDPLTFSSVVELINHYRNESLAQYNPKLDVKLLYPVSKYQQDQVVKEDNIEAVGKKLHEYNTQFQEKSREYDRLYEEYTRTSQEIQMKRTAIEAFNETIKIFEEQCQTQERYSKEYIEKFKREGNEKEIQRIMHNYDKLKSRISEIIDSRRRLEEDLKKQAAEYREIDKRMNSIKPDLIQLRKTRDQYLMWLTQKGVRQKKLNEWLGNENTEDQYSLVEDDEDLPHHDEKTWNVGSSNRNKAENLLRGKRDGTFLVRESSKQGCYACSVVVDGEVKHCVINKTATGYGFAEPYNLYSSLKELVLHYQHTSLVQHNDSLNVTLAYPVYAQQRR
Chain of PI3Kγ (p110γ) Recombinant Human Protein (P48736 whole entry): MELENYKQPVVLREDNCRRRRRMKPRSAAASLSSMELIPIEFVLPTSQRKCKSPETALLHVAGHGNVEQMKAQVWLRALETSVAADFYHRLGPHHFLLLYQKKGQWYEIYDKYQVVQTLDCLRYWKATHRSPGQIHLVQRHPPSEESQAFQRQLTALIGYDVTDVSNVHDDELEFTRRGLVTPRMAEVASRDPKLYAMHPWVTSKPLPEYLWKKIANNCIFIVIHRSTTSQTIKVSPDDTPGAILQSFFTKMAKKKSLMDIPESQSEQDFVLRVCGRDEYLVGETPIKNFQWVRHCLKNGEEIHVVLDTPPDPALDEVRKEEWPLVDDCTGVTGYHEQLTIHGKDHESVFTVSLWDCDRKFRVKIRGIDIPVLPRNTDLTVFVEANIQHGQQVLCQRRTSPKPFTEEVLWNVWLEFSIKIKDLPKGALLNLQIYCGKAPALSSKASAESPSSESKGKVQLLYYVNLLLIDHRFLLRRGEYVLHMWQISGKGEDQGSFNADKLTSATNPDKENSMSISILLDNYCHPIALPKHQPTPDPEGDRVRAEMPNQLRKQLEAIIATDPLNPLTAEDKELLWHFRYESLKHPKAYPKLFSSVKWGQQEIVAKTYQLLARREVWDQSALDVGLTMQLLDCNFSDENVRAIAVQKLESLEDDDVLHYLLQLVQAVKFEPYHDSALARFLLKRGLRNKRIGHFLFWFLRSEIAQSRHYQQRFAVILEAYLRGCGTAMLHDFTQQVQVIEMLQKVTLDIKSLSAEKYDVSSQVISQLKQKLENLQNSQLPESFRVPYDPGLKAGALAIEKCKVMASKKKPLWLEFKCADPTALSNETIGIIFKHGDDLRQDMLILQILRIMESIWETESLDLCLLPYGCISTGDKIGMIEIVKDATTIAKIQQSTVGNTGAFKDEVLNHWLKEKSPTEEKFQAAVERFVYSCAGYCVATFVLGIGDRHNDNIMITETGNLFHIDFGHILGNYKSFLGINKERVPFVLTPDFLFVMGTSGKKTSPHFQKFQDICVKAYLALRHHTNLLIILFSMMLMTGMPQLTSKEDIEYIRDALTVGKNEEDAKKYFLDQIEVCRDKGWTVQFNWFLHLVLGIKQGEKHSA

| SMILES | IC50 [1] [nM] | IC50 [2] [nM] | IC50 [3] [nM] |
| --- | --- | --- | --- |
| Cc1ccc(S(=O)(=O)NC23CCC(CO)(C2)C3)cc1-c1cnc2c(N)nc(C(F)(F)F)cn12 [Example 275, 3-(8-Amino-6-(trifluoromethyl)imidazo[1,2-a]pyrazin-3-yl)-N-(4-(hydroxymethyl)bicyclo[2.1.1]hexan-1-yl)-4-methylbenzenesulfonamide trifluoroacetate salt] | < 100 | 100 to 500 | 100 to 500 |
| Cc1ccc(S(=O)(=O)NC23CC(CC#N)(C2)C3)cc1-c1cnc2c(N)nc(C(F)(F)F)cn12 [Example 276, 3-(8-Amino-6-(trifluoromethyl)imidazo[1,2-a]pyrazin-3-yl)-N-(3-(cyanomethyl)bicyclo[1.1.1]pentan-1-yl)-4-methylbenzenesulfonamide trifluoroacetate salt] | < 100 | 100 to 500 | < 100 |
| COC(=O)C12CC(NS(=O)(=O)c3ccc(C)c(-c4cnc5c(N)nc(C(F)(F)F)cn45)c3)(C1)C2 [Example 277, Methyl 3-(3-(8-amino-6-(trifluoromethyl)imidazo[1,2-a]pyrazin-3-yl)-4-methylphenylsulfonamido)bicyclo[1.1.1]pentane-1-carboxylate trifluoroacetate salt] | < 100 | 100 to 500 | < 100 |
| Cc1ccc(S(=O)(=O)NC23CC(C(F)F)(C2)C3)cc1-c1cnc2c(N)nc(C(F)(F)F)cn12 [Example 278, 3-(8-Amino-6-(trifluoromethyl)imidazo[1,2-a]pyrazin-3-yl)-N-(3-(difluoromethyl)bicyclo[1.1.1]pentan-1-yl)-4-methylbenzenesulfonamide trifluoroacetate salt] | < 100 | 100 to 500 | < 100 |
| Cc1ccc(S(=O)(=O)NC23CC(c4cnco4)(C2)C3)cc1-c1cnc2c(N)nc(C(F)(F)F)cn12 [Example 279, 3-(8-Amino-6-(trifluoromethyl)imidazo[1,2-a]pyrazin-3-yl)-4-methyl-N-(3-(oxazol-5-yl)bicyclo[1.1.1]pentan-1-yl)benzenesulfonamide trifluoroacetate salt] | < 100 | < 100 | < 100 |
| Cc1ccc(S(=O)(=O)NC23CC(Cn4cncn4)(C2)C3)cc1-c1cnc2c(N)nc(C(F)(F)F)cn12 [Example 280, N-(3-((1H-1,2,4-triazol-1-yl)methyl)bicyclo[1.1.1]pentan-1-yl)-3-(8-amino-6-(trifluoromethyl)imidazo[1,2-a]pyrazin-3-yl)-4-methylbenzenesulfonamide] | < 100 | 100 to 500 | 100 to 500 |
| Cc1ccc(S(=O)(=O)NC23CCC(C#N)(C2)C3)cc1-c1cnc2c(N)nc(C(F)(F)F)cn12 [Example 281, 3-(8-Amino-6-(trifluoromethyl)imidazo[1,2-a]pyrazin-3-yl)-N-(4-cyanobicyclo[2.1.1]hexan-1-yl)-4-methylbenzenesulfonamide trifluoroacetate salt] | < 100 | 100 to 500 | 100 to 500 |
| Cc1ccc(S(=O)(=O)NC23CC(C(C)(C)O)(C2)C3)cc1-c1cnc2c(N)nc(C(F)(F)F)cn12 [Example 282, 3-(8-Amino-6-(trifluoromethyl)imidazo[1,2-a]pyrazin-3-yl)-N-(3-(2-hydroxypropan-2-yl)bicyclo[1.1.1]pentan-1-yl)-4-methylbenzenesulfonamide trifluoroacetate salt] | < 100 | 100 to 500 | < 100 |
| Cc1ccc(S(=O)(=O)NC23CC(Cn4cccn4)(C2)C3)cc1-c1cnc2c(N)nc(C(F)(F)F)cn12 [Example 283, N-(3-((1H-pyrazol-1-yl)methyl)bicyclo[1.1.1]pentan-1-yl)-3-(8-amino-6-(trifluoromethyl)imidazo[1,2-a]pyrazin-3-yl)-4-methylbenzenesulfonamide trifluoroacetate salt] | < 100 | 100 to 500 | 100 to 500 |
| Cc1ccc(S(=O)(=O)NC23CC(Cn4ccnc4)(C2)C3)cc1-c1cnc2c(N)nc(C(F)(F)F)cn12 [Example 284, N-(3-((1H-imidazol-1-yl)methyl)bicyclo[1.1.1]pentan-1-yl)-3-(8-amino-6-(trifluoromethyl)imidazo[1,2-a]pyrazin-3-yl)-4-methylbenzenesulfonamide trifluoroacetate salt] | < 100 | 100 to 500 | 100 to 500 |
| Cc1ccc(S(=O)(=O)NC23CC(F)(C2)C3)cc1-c1cnc2c(N)nc(C(F)(F)F)cn12 [Example 285, 3-(8-Amino-6-(trifluoromethyl)imidazo[1,2-a]pyrazin-3-yl)-N-(3-fluorobicyclo[1.1.1]pentan-1-yl)-4-methylbenzenesulfonamide trifluoroacetate salt] | < 100 | 100 to 500 | 100 to 500 |
| Cc1ccc(S(=O)(=O)NC23CC(CF)(C2)C3)cc1-c1cnc2c(N)nc(C(F)(F)F)cn12 [Example 286, 3-(8-Amino-6-(trifluoromethyl)imidazo[1,2-a]pyrazin-3-yl)-N-(3-(fluoromethyl)bicyclo[1.1.1]pentan-1-yl)-4-methylbenzenesulfonamide trifluoroacetate salt] | < 100 | 100 to 500 | < 100 |
| Cc1ccc(S(=O)(=O)NC23CC(C#N)(C2)C3)cc1-c1cnc2c(N)nc(C(F)(F)F)cn12 [Example 287, 3-(8-Amino-6-(trifluoromethyl)imidazo[1,2-a]pyrazin-3-yl)-N-(3-cyanobicyclo[1.1.1]pentan-1-yl)-4-methylbenzenesulfonamide] | < 100 | 100 to 500 | < 100 |
| Cc1ccc(S(=O)(=O)NC23CC(C(N)=O)(C2)C3)cc1-c1cnc2c(N)nc(C(F)(F)F)cn12 [Example 288, 3-(3-(8-Amino-6-(trifluoromethyl)imidazo[1,2-a]pyrazin-3-yl)-4-methylphenylsulfonamido)bicyclo[1.1.1]pentane-1-carboxamide trifluoroacetate salt] | < 100 | 100 to 500 | 100 to 500 |
| Cc1ccc(S(=O)(=O)NC23CC(CN4CCOCC4)(C2)C3)cc1-c1cnc2c(N)nc(C(F)(F)F)cn12 [Example 289, 3-(8-Amino-6-(trifluoromethyl)imidazo[1,2-a]pyrazin-3-yl)-4-methyl-N-(3-(morpholinomethyl)bicyclo[1.1.1]pentan-1-yl)benzenesulfonamide trifluoroacetate salt] | < 100 | 100 to 500 | 100 to 500 |
| Cc1ccc(S(=O)(=O)NC23CC(C(=O)O)(C2)C3)cc1-c1cnc2c(N)nc(C(F)(F)F)cn12 [Example 290, 3-(3-(8-Amino-6-(trifluoromethyl)imidazo[1,2-a]pyrazin-3-yl)-4-methylphenylsulfonamido)bicyclo[1.1.1]pentane-1-carboxylic acid trifluoroacetate salt] | < 100 | 500 to 2000 | > 1000 |
| Cc1ccc(S(=O)(=O)NC23CCC(C(N)=O)(C2)C3)cc1-c1cnc2c(N)nc(C(F)(F)F)cn12 [Example 291, 4-(3-(8-Amino-6-(trifluoromethyl)imidazo[1,2-a]pyrazin-3-yl)-4-methylphenylsulfonamido)bicyclo[2.1.1]hexane-1-carboxamide trifluoroacetate salt] | < 100 | 100 to 500 | 500 to 1000 |
| Cc1ccc(S(=O)(=O)NC23CC(c4nnn[nH]4)(C2)C3)cc1-c1cnc2c(N)nc(C(F)(F)F)cn12 [Example 292, N-(3-(1H-Tetrazol-5-yl)bicyclo[1.1.1]pentan-1-yl)-3-(8-amino-6-(trifluoromethyl)imidazo[1,2-a]pyrazin-3-yl)-4-methylbenzenesulfonamide trifluoroacetate salt] | < 100 | 500 to 2000 | > 1000 |
| Cc1noc(C23CC(NS(=O)(=O)c4ccc(C)c(-c5cnc6c(N)nc(C(F)(F)F)cn56)c4)(C2)C3)n1 [Example 293, 3-(8-Amino-6-(trifluoromethyl)imidazo[1,2-a]pyrazin-3-yl)-4-methyl-N-(3-(3-methyl-1,2,4-oxadiazol-5-yl)bicyclo[1.1.1]pentan-1-yl)benzenesulfonamide trifluoroacetate salt] | < 100 | 100 to 500 | 100 to 500 |
| Cc1ccc(S(=O)(=O)NC23CC(c4nccn4C)(C2)C3)cc1-c1cnc2c(N)nc(C(F)(F)F)cn12 [Example 294, 3-(8-Amino-6-(trifluoromethyl)imidazo[1,2-a]pyrazin-3-yl)-4-methyl-N-(3-(1-methyl-1H-imidazol-2-yl)bicyclo[1.1.1]pentan-1-yl)benzenesulfonamide trifluoroacetate salt] | < 100 | 500 to 2000 | > 1000 |
| Cc1ccc(S(=O)(=O)NC23CC(c4ncno4)(C2)C3)cc1-c1cnc2c(N)nc(C(F)(F)F)cn12 [Example 295, N-(3-(1,2,4-Oxadiazol-5-yl)bicyclo[1.1.1]pentan-1-yl)-3-(8-amino-6-(trifluoromethyl)imidazo[1,2-a]pyrazin-3-yl)-4-methylbenzenesulfonamide trifluoroacetate salt] | < 100 | 500 to 2000 | > 1000 |
